Test results published in article PMC8245910 (Acta Pharmaceutica Sinica. B, 2021).

Assays:
[1] = target: MDR1 (Homo sapiens, UniProt P08183); conditions: cited from earlier work
[2] = target: T1, BCRP (Homo sapiens, UniProt Q9UNQ0); conditions: cited from earlier work
T1 sequence (Q9UNQ0 1-655): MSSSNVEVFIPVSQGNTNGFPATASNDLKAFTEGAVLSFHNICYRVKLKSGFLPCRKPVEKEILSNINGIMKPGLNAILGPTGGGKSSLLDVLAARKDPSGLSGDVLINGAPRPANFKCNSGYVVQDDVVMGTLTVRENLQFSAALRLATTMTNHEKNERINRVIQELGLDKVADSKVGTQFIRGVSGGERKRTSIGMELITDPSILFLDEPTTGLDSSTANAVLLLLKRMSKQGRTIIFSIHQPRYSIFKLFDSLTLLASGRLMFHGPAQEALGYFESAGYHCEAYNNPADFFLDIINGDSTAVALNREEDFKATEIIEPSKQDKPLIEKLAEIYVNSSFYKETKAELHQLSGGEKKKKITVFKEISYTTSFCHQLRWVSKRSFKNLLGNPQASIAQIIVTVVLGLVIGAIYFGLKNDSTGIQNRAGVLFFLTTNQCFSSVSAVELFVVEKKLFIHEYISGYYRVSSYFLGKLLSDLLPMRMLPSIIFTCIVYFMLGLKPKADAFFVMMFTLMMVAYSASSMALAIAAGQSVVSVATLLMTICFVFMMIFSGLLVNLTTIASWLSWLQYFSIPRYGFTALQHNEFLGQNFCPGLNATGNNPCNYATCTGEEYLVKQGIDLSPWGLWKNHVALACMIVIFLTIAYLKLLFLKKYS

[3] = test system: wild-type TF-1; assay: 2-HG reducing assay in cell; assay type: cell-based
[4] = SD rats; cited from earlier work

Chain of MDR1 (P08183 whole entry): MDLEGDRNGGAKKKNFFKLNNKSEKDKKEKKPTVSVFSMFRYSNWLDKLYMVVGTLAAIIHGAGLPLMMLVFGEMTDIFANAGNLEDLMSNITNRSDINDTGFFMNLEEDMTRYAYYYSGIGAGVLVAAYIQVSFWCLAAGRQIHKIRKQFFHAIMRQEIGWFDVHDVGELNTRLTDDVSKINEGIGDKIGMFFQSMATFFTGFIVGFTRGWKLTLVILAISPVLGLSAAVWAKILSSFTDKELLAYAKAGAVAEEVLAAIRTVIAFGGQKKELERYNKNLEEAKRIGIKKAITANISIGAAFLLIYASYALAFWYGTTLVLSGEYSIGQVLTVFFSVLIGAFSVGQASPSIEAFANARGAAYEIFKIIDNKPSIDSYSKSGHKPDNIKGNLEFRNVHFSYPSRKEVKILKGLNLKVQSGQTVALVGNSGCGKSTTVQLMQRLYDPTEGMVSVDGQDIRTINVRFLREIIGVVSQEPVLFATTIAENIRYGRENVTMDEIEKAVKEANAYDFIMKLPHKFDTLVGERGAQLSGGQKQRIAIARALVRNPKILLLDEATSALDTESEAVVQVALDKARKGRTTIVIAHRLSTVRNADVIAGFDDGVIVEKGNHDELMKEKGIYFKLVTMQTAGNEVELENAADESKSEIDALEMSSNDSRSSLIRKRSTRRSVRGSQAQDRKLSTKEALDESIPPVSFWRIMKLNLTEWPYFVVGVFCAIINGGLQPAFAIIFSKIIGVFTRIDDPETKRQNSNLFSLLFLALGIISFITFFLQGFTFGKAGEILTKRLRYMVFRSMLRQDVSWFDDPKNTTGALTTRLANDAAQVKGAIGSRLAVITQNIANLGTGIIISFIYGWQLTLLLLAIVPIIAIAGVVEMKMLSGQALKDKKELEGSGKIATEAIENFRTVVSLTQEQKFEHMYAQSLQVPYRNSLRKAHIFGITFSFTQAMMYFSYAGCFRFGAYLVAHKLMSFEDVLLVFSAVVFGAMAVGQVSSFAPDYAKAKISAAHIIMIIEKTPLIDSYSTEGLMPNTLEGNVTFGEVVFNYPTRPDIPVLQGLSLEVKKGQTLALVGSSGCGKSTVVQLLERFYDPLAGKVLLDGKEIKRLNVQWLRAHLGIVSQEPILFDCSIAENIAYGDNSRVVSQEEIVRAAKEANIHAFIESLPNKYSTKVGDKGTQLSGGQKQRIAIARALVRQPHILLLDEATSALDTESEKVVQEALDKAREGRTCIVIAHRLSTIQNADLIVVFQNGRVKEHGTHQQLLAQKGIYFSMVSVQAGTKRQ

## CC(C)(O)CNc1nc(Nc2ccnc(C(F)(F)F)c2)nc(-c2cccc(C(F)(F)F)n2)n1 [AG-221, Enasidenib]
[1]
  inhibition of MDR1: strong inhibitor
[2]
  inhibition of BCRP: strong inhibitor
[3]
  overall concentration of 2-HG: did not change significantly
[4]
  prototype drug in the excrement, share of the total drugs: about 50%
  prototype products and metabolites excreted in feces: > 90%
